{
  "source": "patent US20090082249A1",
  "about": "“NUTRITIONAL SUPPLEMENT FOR A CATEGORY OF HIV PATIENTS” (N.V. Nutricia, priority 2005, published 2009)",
  "system": "intestinal tight junction permeability",
  "experiment": "Inflammatory mediated intestinal tight junction permeability",
  "data": [
    {"molecule": "CCCCC/C=C\\C/C=C\\C/C=C\\CCCCC(=O)O", "note": "[GLA, gamma linolenic acid]", "values": [
      {"measurement": "reduction of inflammatory mediated intestinal tight junction permeability", "value": "effectively reduce"}
    ]}
  ]
}
